Reference: patent publication US20090142816A1, “GLIOCLADIUM ISOLATE C-13 AND METHODS OF ITS USE FOR PRODUCING VOLATILE COMPOUNDS AND HYDROCARBONS” (priority 2007, published 2009)
“Also recorded” adds a separate entry of the source.

Experiments:
Assay in all cases: PDA plate bioassay of artificial VOC mixture / [8]annulene, two day exposure
Type in all cases: cell-based
Sclerotinia sclerotiorum = system: Sclerotinia sclerotiorum
Procedure: (§1) An artificial mixture of compounds, as well as [8]annulene, that were positively identified in the atmosphere of the Gliocladium sp., were subjected to PDA plate bioassay tests for a two day exposure period. They were available from Sigma-Aldrich (St. Louis, Mo.) or were prepared via organic synthetic techniques (Strobel et al., Microbiology 147: 2943-2950, 2001). Varying amounts (non-equilibrium conditions) of the mixtures of the VOCs (0.8-30 μl) were placed in a small sterile plastic microcup (4×6 mm) that was firmly fixed in the middle of the test plate, and then test organisms were inoculated around the periphery of the agar surface. The amount of each VOC used was calculated from relative areas (RA's) in Table 2. […] Measurements of fungal growth were made and compared to growth on a control PDA plate having no test compounds. The IC50 and IC100 values were calculated from data plots of inhibition of fungal growth as a function of VOC concentrations (Strobel et al., Microbiology 147: 2943-2950, 2001). The IC values are presented as the amount of VOCs (volume per ml of air space in the Petri plate above the fungal culture). Studies were done in triplicate and the data averaged and standard deviations determined (Strobel et al., Microbiology 147: 2943-2950, 2001). Each test organism, after the two day exposure was tested for its viability by placing it on a fresh plate of PDA.
(§2) The test fungi were exposed to amounts of the VOC's varying from 0.8 μl to 30 μl (non-equilibrium conditions in a 50 ml air space volume above the fungal culture on the Petri plate) and exposed to them for two days after which growth rates were measured and the IC50's and IC100's calculated.
(§3) The artificial mixture was prepared based on the ratios of the compounds identified by GC/MS. The IC50's were calculated on the basis of the μl VOCs/ml of the free gas space in the Petri plate above the fungal culture. The IC100's were extrapolated from the curves obtained by plotting fungal inhibition vs. VOC concentration. The IC100's represent the approximate concentration required to give 100% inhibition of fungal growth. Viability was evaluated by transferring the fungal to a regular PDA plate after exposure to the VOC mixtures.
(§4) The IC50's were calculated on the basis of the μl [8]annulene/ml of the free gas space in the Petri plate above the fungal culture. The IC50's and IC100's were calculated in the same manner as described in Example 1. The IC100's represent the approximate concentration required to give 100% inhibition of fungal growth. Viability was tested by transferring the fungal to a regular PDA plate after exposure to [8]annulene.

Geotrichum candidum = system: Geotrichum candidum
Procedure: as §1, §2, §3, §4

Pythium ultimum = system: Pythium ultimum
Procedure: as §1, §2, §3, §4

Gliocladium sp. = system: Gliocladium sp.
Procedure: as §1, §2, §3, §4

Rhizoctonia solani = system: Rhizoctonia solani
Procedure: as §1, §2, §3, §4

Aspergillus ochraceus = system: Aspergillus ochraceus
Procedure: as §1, §2, §3, §4

Verticillium dahliae = system: Verticillium dahliae
Procedure: as §1, §2, §3, §4

Fusarium oxysporum = system: Fusarium oxysporum
Procedure: as §1, §2, §3, §4

[1] = after exposure at the IC100 level, placed on fresh agar plate
[2] = two day exposure, approximate concentration for 100% inhibition, extrapolated from inhibition curves
[3] = two day exposure, μl per ml of free gas space in the Petri plate

In the case of `C1=CC=CC=CC=C1` [[8]annulene, 1,3,5,7-cyclooctatetraene], the Viability (Sclerotinia sclerotiorum; [1]) is reported as “did not die; also recorded: alive”, the IC100 (Sclerotinia sclerotiorum; [2]) is reported as 0.30 μl/ml and the IC50 (Sclerotinia sclerotiorum; [3]) is reported as 0.05 ± 0.01 μl/ml. The Viability (Geotrichum candidum; [1]) was “alive”, the IC100 (Geotrichum candidum; [2]) was 0.44 μl/ml and the IC50 (Geotrichum candidum; [3]) was 0.10 ± 0.02 μl/ml. The Viability (Pythium ultimum; [1]) was “did not die; also recorded: alive”, the IC100 (Pythium ultimum; [2]) was 0.30 μl/ml and the IC50 (Pythium ultimum; [3]) was 0.10 ± 0.04 μl/ml. The Viability (Gliocladium sp.; [1]) was “alive”, the IC100 (Gliocladium sp.; [2]) was 0.60 μl/ml and the IC50 (Gliocladium sp.; [3]) was 0.30 ± 0.01 μl/ml. For the same compound, the Viability (Rhizoctonia solani; [1]) was “alive”, the IC100 (Rhizoctonia solani; [2]) was 0.40 μl/ml and the IC50 (Rhizoctonia solani; [3]) was 0.14 ± 0.08 μl/ml. The Viability (Aspergillus ochraceus; [1]) was “alive”, the IC100 (Aspergillus ochraceus; [2]) was 0.50 μl/ml and the IC50 (Aspergillus ochraceus; [3]) was 0.08 ± 0.01 μl/ml. For the same compound, the Viability (Verticillium dahliae; [1]) was “alive”, the IC100 (Verticillium dahliae; [2]) was 0.30 μl/ml and the IC50 (Verticillium dahliae; [3]) was 0.18 ± 0.00 μl/ml. The Viability (Fusarium oxysporum; [1]) was “alive”, the IC100 (Fusarium oxysporum; [2]) was 0.70 μl/ml and the IC50 (Fusarium oxysporum; [3]) was 0.28 ± 0.03 μl/ml.
